In experiment [1] the test system is isolated stratum corneum (SC) from human skin explants. The experiment is described as follows: Mechanical stress within isolated SC subjected to dehydration stress in an environmental chamber (substrate curvature). From the text: These elements led the Applicant to use an in vitro model of isolated SC to study changes in mechanical properties as a function of hydration level. Measuring skin tension makes it possible to define a relationship between skin dryness and skin stress, and the appearance of cracks. Moreover, the use of this model makes it possible to know with a high degree of accuracy the effect of active agents on these mechanical measurements and, consequently, on the hydration state of the stratum corneum. (K. Levi, R. J. Weber, J. Q. Do and R. H. Dauskardt. International Journal of Cosmetic Science, 2010, 32, 276-293 Drying stress and damage processes in human stratum corneum) (K. Levi and R. H. Dauskardt. International Journal of Cosmetic Science, 2010, 32, 294-298 Application of substrate curvature method to differentiate drying stresses in topical coatings and human stratum corneum).
The mechanical approach used here consists in measuring the mechanical stress produced within SC that has been isolated and subjected to dehydration stress in an environmental chamber.
The SC specimen—from human skin explants—was isolated by enzymatic digestion. It was placed on a borosilicate slide to which it naturally adheres.
The SC, initially 100% hydrated, is then placed in an atmosphere with 7% air humidity. The SC then undergoes a progressive dehydration, during which measurements of SC tension are taken every 15 minutes for 8 hours using a stress measurement device. […] Given the differences that exist between its mechanical properties and those of the support (the slide), the latter bends. By means of this radius of curvature, measured with a laser interferometer, it is then possible to calculate the state of tension/stress from the Stoney equation. The initial data correspond to a measurement of the variation of the curvature of the unit (borosilicate slide+SC). It is possible to calculate the biomechanical stress parameters of the SC, such as tension, from knowledge of the biomechanical properties of the borosilicate slide, its thickness, and the thickness of the SC (see methodology FIG. 1; and bibliographical reference K. Levi, et al., IJCS 2010).
This first kinetics study makes it possible to know the behavior of untreated SC. Next, the unit (SC+slide) is returned to 100% air humidity for 2 hours and then incubated in the various treatments for 5 minutes. A […] film is deposited: using a spiral filmograph for liquid emollients and a slide for creams. At the end of this period the unit is again placed in 7% air humidity for the study of dehydration kinetics until stabilization of the measurements (generally 8 to 12 hours). […]

The test system of the next experiment is isolated stratum corneum. To be noted: Levi et al., Int J Cosmet Sci. 2010; 32: 276-93; cited from earlier work.

The values below come from patent publication US9616010B2, “Cosmetic composition comprising a ternary lipid association for controlling dryness of the skin” (PIERRE FABRE DERMO-COSMETIQUE, priority 2013, dated 2017).

Turning to isocetyl stearoyl stearate [compound 1], in experiment [1] (SC pretreated 5 minutes, then 7% air humidity, compared with untreated control, FIG. 3), the “maximum stress within the SC” value was “momentarily greater than the control”. For the same substance, the “time to reach minimum stress plateau” value in experiment [1] (after the stress starts to fall, 7% air humidity, FIG. 3) came to 2 h. Also, the “time after which the stress falls” value in experiment [1] (hours of dehydration at 7% air humidity, FIG. 3) worked out at 3 h. Besides, the “shrinking of the skin induced by drying stress” value in experiment [1] (topical application, during the first 4 hours, FIG. 1) is on record as “increases”. For the same substance, the “efficacy with respect to the shrinking of the stratum corneum specimen desiccated by a lack of moisture” value in the experiment on isolated stratum corneum is given as “good efficacy”.
